Assay results reported in US20030166629A1, “Cyclic quaternary ammonium compounds” (priority 1999, published 2003).

Tested on: citric acid-induced cough responses
Experiment: Antitussive activity against citric acid aerosol-induced cough in conscious guinea-pigs
Assay type: in vivo, guinea-pig
Conditions: aerosol pre-treatment at 5.0 mg/ml for 5 minutes immediately before citric acid (1M) exposure, vehicle 25% ethanol, 15 minute observation period
Text: The following method is one of the general methods available to determine the antitussive activity of the compounds of the present invention.
Male albino Dunkin-Hartley strain guinea-pigs (weight 300-400 g) can be obtained from various commercial suppliers.
The method is a modification of that described by Adcock J. J., Schneider C. and Smith T. W., “Effects of Morphine and a Novel Opioid Pentapeptide BW443C, on Cough, Nociception and Ventilation in the Unanaesthetized Guinea-pig”, Br. J. Pharmacol., 93, 93-100 (1988). […]
Cylinder air is introduced into the exposure chamber at a flow rate of 1 liter/min, maintained by a needle valve and monitored by a rotameter. […]
Cough responses are induced by exposure to an aerosol of citric acid (1M) for 10 minutes. Animals are continuously monitored by trained observer, and the number of coughs are counted during a 15 minute period from commencement of the citric acid aerosol administration. […]
The three types of response are differentiated primarily by sound and visual observation. […] Each cough is marked on the Grass polygraph paper trace, and from these record numbers, frequency and time of onset of coughs are determined. […]
Quantities of drugs are weighed out and dissolved in a vehicle. […] The sequence of pre-treatment administration is determined according to a 4×4 Latin Square design. […]

Compound: CCCCC[N+]1(C)CCCCC1C(=O)Nc1c(C)cccc1C.[I-] (stereo not shown) [N-methyl-bupivacaine iodide, 2-{[(2,6-Dimethylphenyl)amino]carbonyl}-1-methyl-1-pentylpiperidinium iodide]
- inhibition of cough responses compared with vehicle pre-treated guinea pigs: > 90%
